Results as given in PubChem BioAssay AID1963975 (Molecular Pharmacology Branch, DTP, NCI, 2024).
Each block holds one compound with its values, some of them ahead of it.

Tested on: 624824-186-R-J2-PDC multicell spheroids, viability
Assay: Anticancer human tumor 624824-186-R-J2-PDC patient-derived colon adenocarcinoma cell line growth inhibition [PI3K]
Conditions: for IC50: curve of first compound; for viability, T/C: stronger effect = lower value
In short: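 Complex 3D spheroids (cancer cells + endothelial HUVEC + mesenchymal stem cells); drug pairs of targeted agent x inavolisib/alpelisib/duvelisib/copanlisib; half-log series from ~Cmax, max 10 microM if Cmax unknown; endpoint viability.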

[1] = second compound 0.0316 µM, first compound 0.0316 µM
[2] = second compound 0.0316 µM, first compound 0.1 µM
[3] = second compound 0.0316 µM, first compound 0.316 µM
[4] = second compound 0.0316 µM, first compound 1 µM
[5] = second compound 0.0316 µM, first compound 3.16 µM
[6] = second compound 0.0316 µM, first compound 10 µM
[7] = second compound 0.1 µM, first compound 0.0316 µM
[8] = second compound 0.1 µM, first compound 0.1 µM
[9] = second compound 0.1 µM, first compound 0.316 µM
[10] = second compound 0.1 µM, first compound 1 µM
[11] = second compound 0.1 µM, first compound 3.16 µM
[12] = second compound 0.1 µM, first compound 10 µM
[13] = second compound 0.316 µM, first compound 0.0316 µM
[14] = second compound 0.316 µM, first compound 0.1 µM
[15] = second compound 0.316 µM, first compound 0.316 µM
[16] = second compound 0.316 µM, first compound 1 µM
[17] = second compound 0.316 µM, first compound 3.16 µM
[18] = second compound 0.316 µM, first compound 10 µM
[19] = second compound 1 µM, first compound 0.0316 µM
[20] = second compound 1 µM, first compound 0.1 µM
[21] = second compound 1 µM, first compound 0.316 µM
[22] = second compound 1 µM, first compound 1 µM
[23] = second compound 1 µM, first compound 3.16 µM
[24] = second compound 1 µM, first compound 10 µM
[25] = second compound 3.16 µM, first compound 0.0316 µM
[26] = second compound 3.16 µM, first compound 0.1 µM
[27] = second compound 3.16 µM, first compound 0.316 µM
[28] = second compound 3.16 µM, first compound 1 µM
[29] = second compound 3.16 µM, first compound 3.16 µM
[30] = second compound 3.16 µM, first compound 10 µM
[31] = second compound 10 µM, first compound 0.0316 µM
[32] = second compound 10 µM, first compound 0.1 µM
[33] = second compound 10 µM, first compound 0.316 µM
[34] = second compound 10 µM, first compound 1 µM
[35] = second compound 10 µM, first compound 3.16 µM
[36] = second compound 10 µM, first compound 10 µM
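Also: spheroids exposed to agents for 7 days before viability read.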
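For viability, T/C in this document: 100% = DMSO vehicle treated spheroids.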

IC50 (second compound 0.0316 µM): > 10 µM
IC50 (second compound 0.1 µM): > 10 µM
IC50 (second compound 0.316 µM): > 10 µM
IC50 (second compound 1 µM): > 10 µM
IC50 (second compound 3.16 µM): > 10 µM
IC50 (second compound 10 µM): > 10 µM
Structure (SMILES): C#Cc1c(F)ccc2cc(O)cc(-c3ncc4c(N5CC6CCC(C5)N6)nc(OCC56CCCN5CC(F)C6)nc4c3F)c12 (centres undefined) + Cc1nc(NC(=O)N2CCCC2C(N)=O)sc1-c1ccnc(C(C)(C)C(F)(F)F)c1
viability, T/C [1]: 86.3%
viability, T/C [2]: 82.9%
viability, T/C [3]: 70.8%
viability, T/C [4]: 80.9%
viability, T/C [5]: 96.7%
viability, T/C [6]: 71%
viability, T/C [7]: 90.9%
viability, T/C [8]: 83.5%
viability, T/C [9]: 73%
viability, T/C [10]: 76.6%
viability, T/C [11]: 88.6%
viability, T/C [12]: 60.4%
viability, T/C [13]: 74.4%
viability, T/C [14]: 67.2%
viability, T/C [15]: 81.1%
viability, T/C [16]: 84.2%
viability, T/C [17]: 70.9%
viability, T/C [18]: 73.2%
viability, T/C [19]: 97%
viability, T/C [20]: 82.7%
viability, T/C [21]: 76.1%
viability, T/C [22]: 82.1%
viability, T/C [23]: 79.8%
viability, T/C [24]: 82.2%
viability, T/C [25]: 78.3%
viability, T/C [26]: 83.8%
viability, T/C [27]: 69.5%
viability, T/C [28]: 81.8%
viability, T/C [29]: 81.2%
viability, T/C [30]: 71.5%
viability, T/C [31]: 73.7%
viability, T/C [32]: 74.2%
viability, T/C [33]: 60%
viability, T/C [34]: 58.5%
viability, T/C [35]: 58%
viability, T/C [36]: 56.3%

IC50 (second compound 0.0316 µM): > 10 µM
IC50 (second compound 0.1 µM): > 10 µM
IC50 (second compound 0.316 µM): > 10 µM
IC50 (second compound 1 µM): > 10 µM
IC50 (second compound 3.16 µM): > 10 µM
IC50 (second compound 10 µM): > 10 µM
Structure (SMILES): C=CC(=O)N1CCN(c2nc(=O)n(-c3c(C)ccnc3C(C)C)c3nc(-c4c(O)cccc4F)c(F)cc23)C(C)C1 (centres undefined) + Cc1nc(NC(=O)N2CCCC2C(N)=O)sc1-c1ccnc(C(C)(C)C(F)(F)F)c1
viability, T/C [1]: 98%
viability, T/C [2]: 71.2%
viability, T/C [3]: 101%
viability, T/C [4]: 101%
viability, T/C [5]: 92.8%
viability, T/C [6]: 100%
viability, T/C [7]: 91.9%
viability, T/C [8]: 107%
viability, T/C [9]: 105%
viability, T/C [10]: 80%
viability, T/C [11]: 93.9%
viability, T/C [12]: 101%
viability, T/C [13]: 112%
viability, T/C [14]: 87.8%
viability, T/C [15]: 91.2%
viability, T/C [16]: 79.9%
viability, T/C [17]: 90.8%
viability, T/C [18]: 87%
viability, T/C [19]: 86.2%
viability, T/C [20]: 79.5%
viability, T/C [21]: 70.4%
viability, T/C [22]: 84.9%
viability, T/C [23]: 85.2%
viability, T/C [24]: 67.5%
viability, T/C [25]: 86.8%
viability, T/C [26]: 88.1%
viability, T/C [27]: 92%
viability, T/C [28]: 83%
viability, T/C [29]: 82.6%
viability, T/C [30]: 93.9%
viability, T/C [31]: 79.2%
viability, T/C [32]: 86.5%
viability, T/C [33]: 79.5%
viability, T/C [34]: 91.5%
viability, T/C [35]: 84.1%
viability, T/C [36]: 77.2%
